Results: ChEMBL document CHEMBL1149975, “Synthesis of C2-symmetrical polyhydroxyazepanes as inhibitors of glycosidases” (Bioorg Med Chem Lett, 1996)

Assays:
[1] = Compound was tested for inhibition of alpha-mannosidase from jack beans; NI means no inhibition.; set-up: species or system Canavalia ensiformis
[2] = Compound was tested for inhibition of beta-N-acetylglucosaminidase from jack beans.; set-up: species or system Canavalia ensiformis
[3] = biological target: T1, Beta-galactosidase (Aspergillus niger, UniProt P29853); experiment: Compound was tested for inhibition of beta-galactosidase from aspergillus niger; NI means no inhibition.
T1 sequence (P29853 whole entry): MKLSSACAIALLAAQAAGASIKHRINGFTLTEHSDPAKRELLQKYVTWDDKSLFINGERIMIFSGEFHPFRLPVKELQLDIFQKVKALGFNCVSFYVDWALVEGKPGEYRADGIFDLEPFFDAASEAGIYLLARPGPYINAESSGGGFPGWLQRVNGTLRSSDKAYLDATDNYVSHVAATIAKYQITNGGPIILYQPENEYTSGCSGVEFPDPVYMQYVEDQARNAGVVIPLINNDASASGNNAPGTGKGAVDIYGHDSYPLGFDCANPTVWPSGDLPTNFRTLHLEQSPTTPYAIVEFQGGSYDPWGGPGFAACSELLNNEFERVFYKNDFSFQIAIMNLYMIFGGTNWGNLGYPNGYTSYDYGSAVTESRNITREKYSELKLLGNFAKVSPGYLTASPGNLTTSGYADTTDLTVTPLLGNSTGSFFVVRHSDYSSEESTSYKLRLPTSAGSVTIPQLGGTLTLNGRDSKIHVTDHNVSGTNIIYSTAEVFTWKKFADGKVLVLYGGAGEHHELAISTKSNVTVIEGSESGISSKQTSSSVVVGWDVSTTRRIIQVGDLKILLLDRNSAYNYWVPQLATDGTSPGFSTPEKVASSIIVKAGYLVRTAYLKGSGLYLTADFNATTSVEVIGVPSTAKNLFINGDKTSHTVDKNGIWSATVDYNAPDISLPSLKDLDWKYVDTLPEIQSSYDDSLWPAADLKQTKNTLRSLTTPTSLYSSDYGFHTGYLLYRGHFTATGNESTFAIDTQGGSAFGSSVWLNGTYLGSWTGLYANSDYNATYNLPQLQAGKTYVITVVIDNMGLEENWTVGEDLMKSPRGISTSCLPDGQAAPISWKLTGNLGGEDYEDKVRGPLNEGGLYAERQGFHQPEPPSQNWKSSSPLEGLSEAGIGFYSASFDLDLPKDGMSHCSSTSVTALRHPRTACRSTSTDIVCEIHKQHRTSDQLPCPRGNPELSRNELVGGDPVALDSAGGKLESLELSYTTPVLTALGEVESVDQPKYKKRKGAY

[4] = biological target: T1, Beta-galactosidase; experiment: Compound was tested for inhibition of beta-galactosidase from aspergillus niger.
[5] = Compound was tested for inhibition of alpha-mannosidase from jack beans.; set-up: species or system Canavalia ensiformis
[6] = test system: Canavalia ensiformis; experiment: Compound was tested for % inhibition of beta-N-acetylglucosaminidase from jack beans.; details: concentration not given here
[7] = test system: alpha-galactosidase (Coffea arabica); experiment: Compound was tested for inhibition of alpha-galactosidase from green coffee beans; NI means no inhibition.
[8] = test system: Canavalia ensiformis; experiment: Compound was tested for % inhibition of alpha-mannosidase from jack beans.; details: concentration not given here
[9] = test system: beta-glucosidase (Prunus dulcis); experiment: Compound was tested for % inhibition of beta-glucosidase from sweet almonds.; details: concentration not given here
[10] = test system: Alpha-glucosidase (Saccharomyces cerevisiae); experiment: Compound was tested for % inhibition of alpha-glucosidase from yeast.; details: concentration not given here

O[C@H]1[C@H](O)[C@H](O)CNC[C@H]1O
Ki [1]: No inhibition | Ki [2]: 4.6 µM | Ki [3]: No inhibition

O[C@H]1[C@H](O)[C@@H](O)CNC[C@@H]1O
Ki [4]: 6.5 µM | Ki [2]: 22.7 µM | Ki [5]: 25.7 µM

O[C@H]1[C@H](O)[C@H](O)CN(Cc2ccccc2)C[C@H]1O
inhibition [6]: 6% | Ki [7]: No inhibition | inhibition [8]: 11% | Ki [3]: No inhibition | inhibition [9]: 14% | inhibition [10]: 6%
